Measurements from patent US20030186870A1, “Therapeutic methods and compositions for the treatment of impaired interpersonal and behavioral disorders” (priority 1999, published 2003).
Where no end group is shown, it is not given here.

Legend:
male rats = settings: cited from earlier work
male Wistar rats = assay: Irwin test; type: in vivo, rat; settings: tail vein injection
Procedure: An Irwin test was performed on 12 male Wistar rats (Iffa Credo, L'Arbresles, France), weighing 260-280 g. They were housed in groups of 4 in a climate controlled room with a 12h light:dark cycle (light 8:00 PM-8:00 AM) and had access to food and water ad libitum. After a seven day acclimatization period, the rats were weighed, identified and randomly assigned to one of the four treatment groups. The drug was injected to the tail vein of the rats according to the group dose.
Observations were performed 15, 30, 60 and 120 minutes after administration. Among the most noticeable results are the results concerning the awareness state of the rats.

Row | Molecule | locomotion (male rats; high doses) | anxiolytic-like effect (male rats; low doses) | aggressiveness (male Wistar rats)
1 | CC[C@H](C)[C@@H]1NC(=O)[C@H](Cc2ccc(O)cc2)NC(=O)[C@@H](N)CSSC[C@@H](C(=O)N2CCC[C@H]2C(=O)N[C@@H](CC(C)C)C(=O)NCC(N)=O)NC(=O)[C@H](CC(N)=O)NC(=O)[C@H](CCC(N)=O)NC1=O [oxytocin] | decrease locomotion | anxiolytic-like effect | 
2 | QHNPR [FG-005, Gln-His-Asn-Pro-Arg] |  |  | not associated with an increase of aggressiveness
